Key:
Format in all cases: biochemical
[1] = molecular target: T1, Recombinant human SSAO protein (Homo sapiens, UniProt Q16853); experiment: In vitro inhibitory activity on SSAO/VAP-1 (MAO-Glo assay), human
T1 construct: Eli Lilly (provided, not a catalogue product)
T1 sequence (Q16853 1-763): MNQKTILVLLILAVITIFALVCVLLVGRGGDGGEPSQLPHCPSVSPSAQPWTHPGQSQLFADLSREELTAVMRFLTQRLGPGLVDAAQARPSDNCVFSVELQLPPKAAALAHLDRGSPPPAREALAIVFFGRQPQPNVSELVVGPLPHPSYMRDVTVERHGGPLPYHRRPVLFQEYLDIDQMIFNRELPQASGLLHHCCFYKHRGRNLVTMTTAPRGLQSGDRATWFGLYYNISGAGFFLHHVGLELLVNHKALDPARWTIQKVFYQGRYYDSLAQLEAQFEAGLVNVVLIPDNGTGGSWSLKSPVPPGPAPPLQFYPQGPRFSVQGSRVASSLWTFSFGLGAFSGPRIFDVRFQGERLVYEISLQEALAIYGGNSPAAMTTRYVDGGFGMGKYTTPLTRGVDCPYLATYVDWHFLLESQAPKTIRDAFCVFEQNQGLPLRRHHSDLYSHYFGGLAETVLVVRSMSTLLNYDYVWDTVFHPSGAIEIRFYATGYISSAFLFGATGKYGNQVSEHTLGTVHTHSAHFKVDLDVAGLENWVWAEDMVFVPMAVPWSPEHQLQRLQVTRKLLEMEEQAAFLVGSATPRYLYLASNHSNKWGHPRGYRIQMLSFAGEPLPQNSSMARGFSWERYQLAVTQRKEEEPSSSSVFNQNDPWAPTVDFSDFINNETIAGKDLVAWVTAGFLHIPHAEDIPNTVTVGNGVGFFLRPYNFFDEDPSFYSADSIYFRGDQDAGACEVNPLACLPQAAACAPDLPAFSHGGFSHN
Method: This assay was used to evaluate the in vitro inhibitory activity of the compounds on SSAO/VAP-1 of different species. Recombinant human SSAO protein, mouse SSAO protein or rat SSAO protein (provided by Eli Lilly) were used. The enzyme activity detection kit, MAO-Glo Assay kit (V1402) was purchased from Promega. Enzyme reaction buffer (50 mM HEPES, 120 mM NaCl, 5 mM KCl, 2 mM CaCl2, 1.4 mM MgCl2, 0.001% Tween-20, pH7.4) was prepared. The test compound was dissolved in DMSO and diluted by 3-fold concentration in gradient. The final concentration of test compound in a 10 μL reaction system was 1 μM to 0.05 nM when SSAO was detected. The content of DMSO in the detection reaction was 1%. After the solution of test compound in DMSO was diluted in the enzyme reaction buffer at a volume ratio of 1:25, 2.5 μL of which was added to each well of detection plate, two replicates for each concentration. 5 μL of SSAO protein diluted in the enzyme reaction buffer was added to each well, the final concentration of which was 10 nM to 80 nM in 10 μL reaction system. The mixture was incubated at room temperature for 10 minutes. 2.5 μL of the reaction substrate diluted in the enzyme reaction buffer was added to each well, the final concentration of which was 10 μM in 10 μL reaction system. After the mixture was reacted at room temperature for 120 minutes, 10 μL of detection reagent was added to each well. The reaction solution was incubated for 20 minutes at room temperature, and the plate was read with Synergy Neo 2 for detection. The value was converted into inhibition rate by the following formula: Inhibition rate=(Signalpositive−Signaltest)/(Signalpositive−Signalnegative)×100%
Signalpositive was positive control without test compound. Signalnegative was negative control without test compound and SSAO enzyme, and Signaltest was detection value of each compound at different concentrations. IC50 value was calculated by using 4 parameter curve fitting.

Recombinant human MAO-A = molecular target: T2, Recombinant human MAO-A (Homo sapiens, UniProt P21397); experiment: Inhibitory activity on MAO-A
T2 construct: purchased Sigma M7316
T2 sequence (P21397 1-527): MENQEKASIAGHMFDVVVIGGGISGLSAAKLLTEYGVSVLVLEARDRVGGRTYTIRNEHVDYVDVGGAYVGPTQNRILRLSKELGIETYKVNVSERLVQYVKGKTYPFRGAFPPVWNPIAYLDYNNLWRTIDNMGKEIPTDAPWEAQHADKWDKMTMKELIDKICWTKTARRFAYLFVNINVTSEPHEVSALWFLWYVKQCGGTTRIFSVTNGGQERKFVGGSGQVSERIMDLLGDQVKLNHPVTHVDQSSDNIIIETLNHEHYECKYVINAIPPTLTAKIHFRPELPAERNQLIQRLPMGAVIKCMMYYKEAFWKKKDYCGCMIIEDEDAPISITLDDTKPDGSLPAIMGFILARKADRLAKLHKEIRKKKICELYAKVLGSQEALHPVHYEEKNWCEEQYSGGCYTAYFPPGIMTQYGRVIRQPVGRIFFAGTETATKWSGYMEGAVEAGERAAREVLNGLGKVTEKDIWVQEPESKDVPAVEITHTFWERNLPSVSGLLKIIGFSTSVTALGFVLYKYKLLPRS
Method: (§1) Recombinant human MAO-A and MAO-B protein was purchased from Sigma (M7316, M7441). Other reagents are the same as Biological Test Example 1. The final concentration of test compound in 10 μL reaction system was 100 μM to 5 nM when MAO-A and MAO-B were detected. The final concentrations of MAO-A and MAO-B protein in 10 μL reaction system were 70 nM and 300 nM, respectively, while other reaction conditions were the same as those in Biological Test Example 1. Data analysis and IC50 calculation method were the same as those in Biological Test Example 1.

Recombinant human MAO-B = molecular target: T3, Recombinant human MAO-B (Homo sapiens, UniProt P27338); experiment: Inhibitory activity on MAO-B
T3 construct: purchased Sigma M7441
T3 sequence (P27338 1-520): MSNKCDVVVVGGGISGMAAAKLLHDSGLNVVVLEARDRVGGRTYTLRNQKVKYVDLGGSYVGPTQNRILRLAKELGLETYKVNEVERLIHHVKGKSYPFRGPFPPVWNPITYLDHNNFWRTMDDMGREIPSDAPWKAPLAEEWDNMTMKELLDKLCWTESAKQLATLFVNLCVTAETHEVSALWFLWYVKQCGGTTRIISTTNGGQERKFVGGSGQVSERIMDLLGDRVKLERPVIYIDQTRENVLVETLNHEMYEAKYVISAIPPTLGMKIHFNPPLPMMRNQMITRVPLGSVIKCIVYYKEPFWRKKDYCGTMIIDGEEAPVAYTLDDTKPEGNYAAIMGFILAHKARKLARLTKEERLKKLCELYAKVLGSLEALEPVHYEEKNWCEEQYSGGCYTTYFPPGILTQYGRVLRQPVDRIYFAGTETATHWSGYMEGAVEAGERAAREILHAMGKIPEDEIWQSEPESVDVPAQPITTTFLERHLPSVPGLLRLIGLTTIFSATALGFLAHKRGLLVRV
Method: as §1

NC/C(=C\F)COc1cnc(N2CC3(COC3)C2)nc1 [Example 11]
IC50 [1]: > 0.05 µM
IC50 (Recombinant human MAO-A): 2 to 100 µM
IC50 (Recombinant human MAO-B): > 20 µM

From patent publication US12258336B2, “Preparation of seimicarbazide-sensitive amine oxidase inhibitor and use thereof” (SHANGHAI ENNOVABIO PHARMACEUTICALS CO., LTD., priority 2018, dated 2025)
